The source of these data is ChEMBL document CHEMBL5029152, “Discovery of Highly Potent and Selective IRAK1 Degraders to Probe Scaffolding Functions of IRAK1 in ABC DLBCL” (J Med Chem, 2021).

Structures are written as SMILES.

Assay [1] addresses T1, von Hippel-Lindau disease tumor suppressor/Interleukin-1 receptor-associated kinase 1 (Homo sapiens, UniProt P51617+P40337). In words: Protac activity at IRAK1/VHL E3 ligase in HEK293T cells assessed as induction of IRAK1 degradation measured after 24 hrs by Western blot analysis. Type of assay: cell-based.
Target sequence in this assay (P51617 whole entry): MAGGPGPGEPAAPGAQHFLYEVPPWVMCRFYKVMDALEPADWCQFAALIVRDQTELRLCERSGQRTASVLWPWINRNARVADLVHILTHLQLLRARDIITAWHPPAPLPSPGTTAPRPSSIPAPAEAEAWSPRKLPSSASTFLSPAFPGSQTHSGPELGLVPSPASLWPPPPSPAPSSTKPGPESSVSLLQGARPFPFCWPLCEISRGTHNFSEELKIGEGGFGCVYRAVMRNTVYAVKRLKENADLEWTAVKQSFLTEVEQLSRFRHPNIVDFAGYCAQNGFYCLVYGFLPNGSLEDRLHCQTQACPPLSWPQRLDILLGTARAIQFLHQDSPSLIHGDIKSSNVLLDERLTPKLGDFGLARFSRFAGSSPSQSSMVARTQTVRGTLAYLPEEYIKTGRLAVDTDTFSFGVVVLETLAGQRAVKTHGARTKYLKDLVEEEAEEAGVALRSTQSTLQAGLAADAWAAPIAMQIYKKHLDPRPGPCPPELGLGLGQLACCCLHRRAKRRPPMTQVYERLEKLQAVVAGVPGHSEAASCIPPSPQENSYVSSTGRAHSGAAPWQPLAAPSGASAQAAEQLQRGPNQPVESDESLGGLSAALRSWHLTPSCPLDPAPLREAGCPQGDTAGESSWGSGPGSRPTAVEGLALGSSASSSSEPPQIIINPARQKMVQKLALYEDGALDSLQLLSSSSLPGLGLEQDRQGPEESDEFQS
Target sequence in this assay (P40337 whole entry): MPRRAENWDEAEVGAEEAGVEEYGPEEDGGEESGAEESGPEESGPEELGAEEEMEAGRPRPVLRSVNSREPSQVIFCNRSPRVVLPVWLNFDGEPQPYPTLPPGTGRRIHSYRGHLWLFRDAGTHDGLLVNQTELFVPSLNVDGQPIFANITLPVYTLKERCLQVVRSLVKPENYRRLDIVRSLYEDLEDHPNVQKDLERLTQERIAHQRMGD
Assay [2] has as its target von Hippel-Lindau disease tumor suppressor (Homo sapiens, UniProt P40337). In words: Displacement of 5-FAM-labelled DEALA-HypYIPMDDDFQLRSF peptide from VHL (unknown origin) by fluorescence polarization assay.
The target of assay [3] is Interleukin-1 receptor-associated kinase 1 (Homo sapiens, UniProt P51617). In words: Inhibition of truncated human N-terminal GST-fusion tagged IRAK1 (194 to 712 residues) expressed in baculovirus expression system using FAM-labelled peptide as substrate preincubated for 10 mins followed by substrate addition and further incubated for 1 hr in presence of ATP at Km concentration by caliper mobility shift assay.
Chain of Interleukin-1 receptor-associated kinase 1 (P51617 whole entry, the tested form may be a part): as the sequence (P51617 whole entry) above

Assay [4] concerns the target T2, Interleukin-1 receptor-associated kinase 4 (Homo sapiens, UniProt Q9NWZ3).
T2 sequence (Q9NWZ3 whole entry): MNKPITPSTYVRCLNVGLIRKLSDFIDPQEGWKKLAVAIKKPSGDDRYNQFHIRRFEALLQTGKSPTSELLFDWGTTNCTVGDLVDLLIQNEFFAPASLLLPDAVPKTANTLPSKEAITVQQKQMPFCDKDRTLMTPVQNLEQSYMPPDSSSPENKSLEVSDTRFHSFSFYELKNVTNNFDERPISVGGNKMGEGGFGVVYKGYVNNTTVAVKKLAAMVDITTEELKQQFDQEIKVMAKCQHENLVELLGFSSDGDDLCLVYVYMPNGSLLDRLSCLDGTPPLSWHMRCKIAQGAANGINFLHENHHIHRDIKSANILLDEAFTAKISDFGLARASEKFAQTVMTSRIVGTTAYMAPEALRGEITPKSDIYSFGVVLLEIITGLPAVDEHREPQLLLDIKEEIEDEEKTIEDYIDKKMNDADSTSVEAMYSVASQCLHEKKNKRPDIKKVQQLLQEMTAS
In words: Inhibition of full length human N-terminal GST-fusion tagged IRAK4 expressed in baculovirus expression system using FAM-labelled peptide as substrate preincubated for 10 mins followed by substrate addition and further incubated for 1 hr in presence of ATP at Km concentration by caliper mobility shift assay.

In assay [5] the target is T1, von Hippel-Lindau disease tumor suppressor/Interleukin-1 receptor-associated kinase 1. In words: Protac activity at IRAK1/VHL E3 ligase in HEK293T cells assessed as induction of IRAK1 degradation at 10 uM measured after 24 hrs by Western blot analysis relative to control. Type of assay: cell-based. (In general: In western blotting, separated proteins are transferred to a membrane and probed.)
Target sequence in this assay (P40337 whole entry, looked up): as the sequence (P40337 whole entry) above
Target sequence in this assay (P51617 whole entry, looked up): as the sequence (P51617 whole entry) above

The nature of assay [6]: Cytotoxicity against human HBL1 cells assessed as reduction in cell viability measured after 12 days by CellTiter-Glo assay. Format: functional. The settings on record: time 12 day.
The next assay concerns OCI-Ly10. In words: Cytotoxicity against human OCILY10 cells assessed as reduction in cell viability measured after 12 days by CellTiter-Glo assay. Type of assay: functional. The settings on record: time 12 day. (In ATP-based viability assays light output follows the ATP content of the culture.)
Assay [7] addresses T1, von Hippel-Lindau disease tumor suppressor/Interleukin-1 receptor-associated kinase 1. In words: Protac activity at IRAK1/VHL E3 ligase in HEK293T cells assessed as induction of IRAK1 degradation at >=1 uM measured after 8 hrs by Western blot analysis relative to control. Format: cell-based. The settings on record: dose microM >=1, time 8.0 hrs.
Target sequence in this assay (P40337 whole entry, looked up): as the sequence (P40337 whole entry) above
Target sequence in this assay (P51617 whole entry, looked up): as the sequence (P51617 whole entry) above
For assay [8] the target is unchanged. In words: Protac activity at IRAK1/VHL E3 ligase in HEK293T cells assessed as induction of IRAK1 degradation at >=1 uM measured after 2 hrs by Western blot analysis relative to control. Type of assay: cell-based. The settings on record: dose microM >=1, time 2.0 hrs.
Target sequence in this assay (P40337 whole entry, looked up): as the sequence (P40337 whole entry) above
Target sequence in this assay (P51617 whole entry, looked up): as the sequence (P51617 whole entry) above
The nature of assay [9]: Cytotoxicity against human HBL1 cells assessed as cell growth inhibition measured after 12 days by WST-8 assay. Type of assay: functional, cell-based. The settings on record: HBL1, 288 h. Background: Tetrazolium assays rely on reduction of a dye to a coloured formazan, in cell work by metabolically active cells.

Chain of von Hippel-Lindau disease tumor suppressor (P40337 whole entry, the tested form may be a part): as the sequence (P40337 whole entry) above

A word on the DC50: it is the concentration giving 50% degradation. Broadly, the IC50 is the concentration at which inhibition is half-maximal. With `COc1cc(N2CCC(OCC(=O)N[C@H](C(=O)N3C[C@@H](O)C[C@H]3C(=O)N[C@@H](C)c3ccc(-c4scnc4C)cc3)C(C)(C)C)CC2)ccc1NC(=O)c1cccc(-c2ccn[nH]2)n1`, the DC50 in [1] is over 10000 nM. Further, the IC50 in assay [2] is over 10000 nM; in assay [3], 79 nM; in assay [4], 320 nM. In addition, in assay [5], the %max is 18%. Moreover, the Activity in [6] was determined as 1.5 µM; in the assay with OCI-Ly10, 3 µM.
On to `COc1cc(N2CCC(OCC(=O)N[C@H](C(=O)N3C[C@H](O)C[C@H]3C(=O)NCc3ccc(-c4scnc4C)cc3)C(C)(C)C)CC2)ccc1NC(=O)c1cccc(-c2ccn[nH]2)n1`, for which the IC50 stood at 1400 nM in [2], 60 nM in assay [3] and 260 nM in assay [4]. Moreover, in assay [5], the %max turned out to be 95%.
Turning to `COc1cc(N2CCN(CCC(=O)N[C@H](C(=O)N3C[C@H](O)C[C@H]3C(=O)NCc3ccc(-c4scnc4C)cc3)C(C)(C)C)CC2)ccc1NC(=O)c1cccc(-c2cc[nH]n2)n1`, in assay [1], the DC50 amounted to 134 nM. Besides, the IC50 turned out to be 1650 nM in assay [2], 80 nM in [3] and 368 nM in assay [4]. Also, the results for the Activity in [7] and in assay [8] were over 90% and 50%, respectively. Besides, the %max in assay [5] was determined as 88%.
Regarding `COc1cc(N2CCOCC2)ccc1NC(=O)c1cccc(-c2ccn[nH]2)n1`, the IC50 is 23 nM in assay [3], 24 nM in assay [4] and 2800 nM in assay [9].
